Assay results from patent publication US12509447B2, “Small molecule compound” (Technoderma Medicines Pte Ltd, priority 2019, dated 2025).

Assays:
Assay type in all cases: biochemical
JAK3 = target: T1, JAK3 (Homo sapiens, UniProt P52333); assay: Inhibition of JAK kinase activity, EZ Reader microfluidic phosphorylation of peptide substrate: JAK3; conditions: JAK3 kinase 1 nM; highest final concentration 10 μM, 1:3 serial dilution, 8 points, duplicates
T1 sequence (P52333 1-1124): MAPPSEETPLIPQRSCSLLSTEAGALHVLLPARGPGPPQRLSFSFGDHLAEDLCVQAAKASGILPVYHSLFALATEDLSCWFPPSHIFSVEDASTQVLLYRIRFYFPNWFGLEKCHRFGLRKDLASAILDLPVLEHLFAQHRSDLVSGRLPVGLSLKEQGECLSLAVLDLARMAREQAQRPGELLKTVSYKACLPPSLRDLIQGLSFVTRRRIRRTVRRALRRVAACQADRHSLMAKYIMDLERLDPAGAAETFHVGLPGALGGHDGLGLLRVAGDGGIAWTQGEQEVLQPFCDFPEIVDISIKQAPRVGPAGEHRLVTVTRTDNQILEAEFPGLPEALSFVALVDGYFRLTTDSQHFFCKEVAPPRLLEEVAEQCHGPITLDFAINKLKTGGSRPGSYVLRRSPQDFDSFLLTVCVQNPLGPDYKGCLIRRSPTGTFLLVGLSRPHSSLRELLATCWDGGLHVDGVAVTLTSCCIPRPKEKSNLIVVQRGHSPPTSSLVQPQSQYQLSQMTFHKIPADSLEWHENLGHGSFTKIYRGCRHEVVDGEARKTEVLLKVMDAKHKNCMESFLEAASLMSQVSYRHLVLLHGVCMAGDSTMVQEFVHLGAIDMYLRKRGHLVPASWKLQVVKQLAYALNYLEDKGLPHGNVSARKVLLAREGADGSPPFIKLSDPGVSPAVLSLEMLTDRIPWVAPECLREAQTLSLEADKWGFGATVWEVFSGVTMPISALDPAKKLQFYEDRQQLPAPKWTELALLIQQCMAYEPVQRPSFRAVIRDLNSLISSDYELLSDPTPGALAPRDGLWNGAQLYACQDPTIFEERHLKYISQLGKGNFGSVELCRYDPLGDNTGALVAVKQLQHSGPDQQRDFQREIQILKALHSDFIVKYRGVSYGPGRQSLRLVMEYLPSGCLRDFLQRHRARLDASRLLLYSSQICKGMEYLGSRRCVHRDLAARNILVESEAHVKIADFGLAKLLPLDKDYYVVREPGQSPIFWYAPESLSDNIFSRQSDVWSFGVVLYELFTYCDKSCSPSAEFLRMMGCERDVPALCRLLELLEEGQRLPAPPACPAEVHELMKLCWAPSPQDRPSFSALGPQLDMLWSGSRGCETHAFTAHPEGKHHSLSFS
Excerpt: (§1) EZ Reader available from PerkinElmer can be used for detecting the phosphorylation of polypeptide substrates catalyzed by kinases. This device is based on microfluidic separation technology, and can directly detect fluorescence labeled substrates and products. The separation step is achieved in a microfluidic chip by controlling the pressure and electric field intensity. In a kinase experiment, the product conversion rate is generally controlled at 20-30%. This biological assay method is used for identifying the inhibitory effect of the compounds on JAK.
(§2) The compound powder was dissolved in DMSO, sealed and stored in a refrigerator at −20° C. The in-house compound Ref1 was used as a positive control for testing of JAK1, JAK2 and Tyk2, and Ref2 was used as a positive control for testing of JAK3.
(§3) • S2.1. 1M HEPES buffer: 0.5M HEPES free acid and 0.5M HEPES sodium salt are weighed, added into ultrapure water for dissolution, brought to a desired volume, filtered and stored in a refrigerator at 4° C. • S2.2. 40 mM ATP solution: dissolved in a 50 mM HEPES buffer solution, prepared into 40 mM, aliquoted, and cryopreserved in a refrigerator at −20° C. • S2.3. 0.5% Tween 20: 100% Tween 20 was diluted with ultrapure water, and stored in a refrigerator at 4° C. • S2.4. 35% bovine serum albumin: a 35% bovine serum albumin solution is prepared in ultrapure water, aliquoted, and stored in a refrigerator at −20° C. • S2.5. 1M dithiothreitol solution: dithiothreitol is formulated into a 1M solution with ultrapure water, aliquoted, and stored in a refrigerator at −20° C. • S2.6. 0.5 mM Jaktide Peptide substrate solution: it is dissolved in 50 mM HEPES to 0.5 mM, aliquoted, and stored in a refrigerator at −20° C. • S2.7. 0.5 mM IRStide Peptide substrate solution: it is dissolved in 50 mM HEPES to 0.5 mM, aliquoted, and stored in a refrigerator at −20° C. • S2.8. Assay Buffer: 20 mM HEPES buffer, pH 7.4, 10 mM magnesium chloride, 0.01% bovine serum albumin BSA, 0.0005% Tween-20, and a 1 mM dithiothreitol solution. • S2.9. Stop Buffer: 180 mM HEPES buffer, 20 mM ethylenediamine tetraacetic acid (EDTA), and 0.2% Coating Reagent 3. • S2.10. Separation Buffer: 100 mM HEPES buffer, 10 mM EDTA, 0.0005% Tween 20, 0.1% Coating Reagent 3, and 1% dimethyl sulfoxide. 3. Experimental Procedures • S3.1. Preparation of compound plate
(§4) The compound is dissolved in dimethyl sulfoxide to 10 mM, a certain volume is taken and diluted to 0.6 mM, 10 μl of the diluted 0.6 mM solution is taken and added into a 384 microplate or 1:3 serial dilution, with a total of 8 concentration points. • S3.2. Compound layout
(§5) • positive control (HPE1): Ref1, final concentration: 10 μM • positive control (HPE1): Ref2, final concentration: 10 μM • negative control (ZPE): DMSO, with a final concentration of 1.6% • Compound: the highest final concentration at 10 μM, 1:3 serial dilution, with 8 concentration points and in duplicates. 4. Experimental operation steps • S4.1. the experimental plate was added with 250 nl of the compound per well with ECHO, and centrifuged at 1,000 rpm for 1 minute; • S4.2. the precipitate was added with 5 μl of the experimental buffer, and shaken for several seconds to fully dissolve the compound; • S4.3. the solution was added with 5 μl of a 3× substrate solution, as well as 5 μl of a 3× kinase solution, and centrifuged at 800 rpm for 1 minute; • S4.4. The final concentrations of JAK1, JAK2, JAK3 and Tyk2 kinases in the reaction system are 20, 1, 1 and 1 nM, respectively. • S4.5. the reaction system is incubated at room temperature, wherein the incubation time of each kinase is different, and there are differences in incubation time of different batches of kinases. • S4.6. When the reaction reaches 20%-30%, the reaction system is added with 15 μl of the stop buffer to terminate the reaction, and centrifuged at 1,000 rpm for 2 minutes. • S4.7. The precipitate was placed onto a EZ Reader for plate reading. • S4.8. […]

JAK1 = JAK1 (Homo sapiens, UniProt P23458); assay: Inhibition of JAK kinase activity, EZ Reader microfluidic phosphorylation of peptide substrate: JAK1; conditions: JAK1 kinase 20 nM; highest final concentration 10 μM, 1:3 serial dilution, 8 points, duplicates
JAK1, sequence (P23458 whole entry): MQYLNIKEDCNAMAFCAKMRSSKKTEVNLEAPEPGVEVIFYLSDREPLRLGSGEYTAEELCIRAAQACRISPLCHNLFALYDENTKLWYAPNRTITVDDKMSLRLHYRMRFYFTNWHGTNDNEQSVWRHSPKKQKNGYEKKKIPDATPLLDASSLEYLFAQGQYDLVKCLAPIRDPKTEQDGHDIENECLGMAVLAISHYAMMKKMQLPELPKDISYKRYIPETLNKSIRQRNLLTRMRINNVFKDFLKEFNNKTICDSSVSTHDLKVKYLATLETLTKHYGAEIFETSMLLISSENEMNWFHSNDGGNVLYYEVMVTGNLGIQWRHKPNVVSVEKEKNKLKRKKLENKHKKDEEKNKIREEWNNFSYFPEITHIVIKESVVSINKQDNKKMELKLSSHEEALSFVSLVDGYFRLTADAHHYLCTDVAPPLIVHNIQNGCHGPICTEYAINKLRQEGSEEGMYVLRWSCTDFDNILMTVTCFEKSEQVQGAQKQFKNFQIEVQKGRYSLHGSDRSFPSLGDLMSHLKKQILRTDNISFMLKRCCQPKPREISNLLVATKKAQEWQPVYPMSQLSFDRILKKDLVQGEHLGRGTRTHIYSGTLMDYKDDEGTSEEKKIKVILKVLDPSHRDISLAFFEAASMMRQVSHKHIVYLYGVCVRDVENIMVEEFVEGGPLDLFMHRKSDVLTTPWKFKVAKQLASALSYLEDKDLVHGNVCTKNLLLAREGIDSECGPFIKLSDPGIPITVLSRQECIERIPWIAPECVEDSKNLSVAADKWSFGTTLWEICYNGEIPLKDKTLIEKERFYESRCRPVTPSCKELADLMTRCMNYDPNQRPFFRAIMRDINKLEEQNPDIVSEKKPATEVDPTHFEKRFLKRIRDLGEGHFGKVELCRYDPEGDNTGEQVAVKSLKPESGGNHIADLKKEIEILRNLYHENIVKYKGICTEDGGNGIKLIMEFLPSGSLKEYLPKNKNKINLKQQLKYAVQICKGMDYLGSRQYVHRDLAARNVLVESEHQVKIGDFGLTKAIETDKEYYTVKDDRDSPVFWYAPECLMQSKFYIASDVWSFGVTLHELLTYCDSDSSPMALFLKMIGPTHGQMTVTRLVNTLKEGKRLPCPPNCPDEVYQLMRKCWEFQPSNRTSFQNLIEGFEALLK
Excerpt: as §1, §2, §3, §4, §5

JAK2 = JAK2 (Homo sapiens, UniProt O60674); assay: Inhibition of JAK kinase activity, EZ Reader microfluidic phosphorylation of peptide substrate: JAK2; conditions: JAK2 kinase 1 nM; highest final concentration 10 μM, 1:3 serial dilution, 8 points, duplicates
JAK2, sequence (O60674 whole entry): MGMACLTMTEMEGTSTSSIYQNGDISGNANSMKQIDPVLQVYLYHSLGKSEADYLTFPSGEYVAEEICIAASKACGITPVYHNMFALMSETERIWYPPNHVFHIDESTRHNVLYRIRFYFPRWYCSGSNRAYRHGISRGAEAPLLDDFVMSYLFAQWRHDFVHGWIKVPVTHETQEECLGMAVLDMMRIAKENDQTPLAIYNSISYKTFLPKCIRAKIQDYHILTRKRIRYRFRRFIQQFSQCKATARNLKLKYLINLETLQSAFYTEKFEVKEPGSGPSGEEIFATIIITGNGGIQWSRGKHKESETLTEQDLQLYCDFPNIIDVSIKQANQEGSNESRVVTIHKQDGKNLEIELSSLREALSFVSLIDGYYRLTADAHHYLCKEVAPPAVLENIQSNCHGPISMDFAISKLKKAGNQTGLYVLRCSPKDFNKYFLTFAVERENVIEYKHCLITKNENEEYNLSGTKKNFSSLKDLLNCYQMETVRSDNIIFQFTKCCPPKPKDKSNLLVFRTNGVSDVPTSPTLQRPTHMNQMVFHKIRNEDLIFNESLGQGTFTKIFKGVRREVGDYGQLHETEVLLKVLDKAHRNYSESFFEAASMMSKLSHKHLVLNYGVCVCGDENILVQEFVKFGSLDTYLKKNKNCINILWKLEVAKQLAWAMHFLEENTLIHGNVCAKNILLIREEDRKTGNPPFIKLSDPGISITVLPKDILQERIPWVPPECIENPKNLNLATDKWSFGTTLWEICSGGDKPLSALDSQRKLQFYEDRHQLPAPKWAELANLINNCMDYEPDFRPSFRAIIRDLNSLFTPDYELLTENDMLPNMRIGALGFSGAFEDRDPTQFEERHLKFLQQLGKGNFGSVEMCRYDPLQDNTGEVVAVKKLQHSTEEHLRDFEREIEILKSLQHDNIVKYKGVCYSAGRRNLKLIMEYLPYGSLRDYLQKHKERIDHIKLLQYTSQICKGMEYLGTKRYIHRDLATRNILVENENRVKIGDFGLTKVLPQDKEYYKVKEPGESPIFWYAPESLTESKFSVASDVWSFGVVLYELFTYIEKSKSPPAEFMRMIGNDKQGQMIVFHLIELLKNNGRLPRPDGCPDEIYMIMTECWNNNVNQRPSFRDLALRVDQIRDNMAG
Excerpt: as §1, §2, §3, §4, §5

Tyk2 = Tyk2 (Homo sapiens, UniProt P29597); assay: Inhibition of JAK kinase activity, EZ Reader microfluidic phosphorylation of peptide substrate: Tyk2; conditions: Tyk2 kinase 1 nM; highest final concentration 10 μM, 1:3 serial dilution, 8 points, duplicates
Tyk2, sequence (P29597 whole entry): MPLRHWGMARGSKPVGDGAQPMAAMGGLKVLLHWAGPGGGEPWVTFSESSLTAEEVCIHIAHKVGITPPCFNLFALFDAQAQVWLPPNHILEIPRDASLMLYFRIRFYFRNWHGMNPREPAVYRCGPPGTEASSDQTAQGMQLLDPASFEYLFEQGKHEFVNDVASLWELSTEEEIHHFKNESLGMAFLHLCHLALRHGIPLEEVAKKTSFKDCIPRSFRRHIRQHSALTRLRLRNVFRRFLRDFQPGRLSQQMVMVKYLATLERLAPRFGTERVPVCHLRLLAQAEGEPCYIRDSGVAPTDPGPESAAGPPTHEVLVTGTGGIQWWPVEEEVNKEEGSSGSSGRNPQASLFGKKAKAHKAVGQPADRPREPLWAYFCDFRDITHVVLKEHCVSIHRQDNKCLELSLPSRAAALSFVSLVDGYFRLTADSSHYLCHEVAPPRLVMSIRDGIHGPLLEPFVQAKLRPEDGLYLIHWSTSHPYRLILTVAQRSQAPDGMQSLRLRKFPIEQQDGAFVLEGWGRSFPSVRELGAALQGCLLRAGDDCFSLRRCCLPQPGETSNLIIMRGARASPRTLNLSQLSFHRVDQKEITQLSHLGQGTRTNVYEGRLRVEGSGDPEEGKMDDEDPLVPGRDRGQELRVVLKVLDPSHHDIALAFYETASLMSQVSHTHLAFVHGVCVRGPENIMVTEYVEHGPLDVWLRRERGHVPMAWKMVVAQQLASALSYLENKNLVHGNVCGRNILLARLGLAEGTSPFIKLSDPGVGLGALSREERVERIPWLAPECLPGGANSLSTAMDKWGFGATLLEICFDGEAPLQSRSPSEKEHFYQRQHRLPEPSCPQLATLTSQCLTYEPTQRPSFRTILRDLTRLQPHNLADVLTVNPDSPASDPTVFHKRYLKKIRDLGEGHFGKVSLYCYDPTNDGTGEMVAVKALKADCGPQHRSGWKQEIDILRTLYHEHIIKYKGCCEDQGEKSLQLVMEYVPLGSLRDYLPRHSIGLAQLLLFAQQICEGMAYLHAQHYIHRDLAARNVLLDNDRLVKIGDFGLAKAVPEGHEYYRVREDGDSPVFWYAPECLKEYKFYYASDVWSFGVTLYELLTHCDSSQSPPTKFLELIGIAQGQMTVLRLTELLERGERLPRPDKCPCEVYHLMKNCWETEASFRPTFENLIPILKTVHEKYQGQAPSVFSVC
Excerpt: as §1, §2, §3, §4, §5

| Compound | IC50 (JAK3) [µM] | IC50 (JAK1) [µM] | IC50 (JAK2) [µM] | IC50 (Tyk2) [µM] |
| --- | --- | --- | --- | --- |
| Cn1cc(Nc2nccc(-c3cnn(C4CN(C(=O)C5CC5)C4)c3)n2)cn1 [TDM-180667, cyclopropyl(3-(4-(2-((1-methyl-1H-pyrazol-4-yl)amino)pyrimidin-4-yl)-1H-pyrazol-1-yl)azetidin-1-yl)ketone] | ≥ 10 | ≥ 10 | ≥ 10 | ≥ 10 |
| CN1CCN(c2ccc(-c3ccnc(Nc4cnn(C)c4)n3)cc2)CC1 [TDM-180828, N-(1-methyl-1H-pyrazol-4-yl)-4-(4-(4-methylpiperazin-1-yl)phenyl)pyrimidin-2-amine] | ≥ 10 | 1 to 10 | 1 to 10 | 1 to 10 |
| CCCC(=O)N1CCC(n2cc(-c3ccnc(Nc4cnn(C)c4)n3)cn2)C1 (stereo not shown) [TDM-180650, 1-(3-(4-(2-((1-methyl-1H-pyrazol-4-yl)amino)pyrimidin-4-y1)-1H-pyrazol-1-yl)pyrrolidin-1-yl)butan-1-one] | ≥ 10 | ≥ 10 | ≥ 10 | ≥ 10 |
| CCS(=O)(=O)N1CC(CC#N)(n2ccc(-c3ccnc(Nc4cnn(C)c4)n3)c2)C1 [TDM-180771, 2-(1-(ethylsulfonyl)-3-(3-(2-((1-methyl-1H-pyrazol-4-yl)amino)pyrimidin-4-yl)-1H-pyrrol-1-yl)azetidinpyridin-3-yl)acetonitrile] | 1 to 10 | 0.1 to 1 | < 0.1 | < 0.1 |
| Cn1cc(Nc2nccc(-c3cnn(C4(CC#N)CN(C(=O)C5CC5(F)F)C4)c3)n2)cn1 (stereo not shown) [TDM-180726, 2-(1-(2,2-difluorocyclo-1-carbonyl)-3-(4-(2-((1-methyl-1H-pyrazol-4-yl)amino)pyrimidin-4-yl)-1H-pyrazol-1-yl)azetidin-3-yl)acetonitrile] | 1 to 10 | 0.1 to 1 | 0.1 to 1 | 0.1 to 1 |
| CCCS(=O)(=O)N1CC(CC#N)(n2ccc(-c3ccnc(Nc4cnn(C)c4)n3)c2)C1 [TDM-180785, 2-(3-(3-(2-((1-methyl-1H-pyrazol-4-yl)amino)pyrimidin-4-yl)-1H-pyrrol-1-yl)-1-(propylsulfonyl)azetidinpyridin-3-yl)acetonitrile] | ≥ 10 | 0.1 to 1 | 0.1 to 1 | 0.1 to 1 |
| CCS(=O)(=O)N1CC(CC#N)(n2cc(-c3ccnc(Nc4cnn(C)c4)n3)cn2)C1 [TDM-180728, 2-(1-(ethylsulfonyl)-3-(4-(2-((1-methyl-1H-pyrazol-4-yl)amino)pyrimidin-4-yl)-1H-pyrazol-1-yl)azetidinpyridin-3-yl)acetonitrile] | 1 to 10 | 0.1 to 1 | < 0.1 | 0.1 to 1 |
| Cn1cc(Nc2nccc(-c3ccn(C4(CC#N)CN(S(=O)(=O)C5CC5)C4)c3)n2)cn1 [TDM-180770, 2-(1-(cyclopropylsulfonyl)-3-(3-(2-((1-methyl-1H-pyrazol-4-yl)amino)pyrimidin-4-yl)-1H-pyrrol-1-yl)azetidinpyridin-3-yl)acetonitrile] | 1 to 10 | 0.1 to 1 | 0.1 to 1 | < 0.1 |
| Cn1cc(Nc2cc(-c3cnn(C4CN(C(=O)CC#N)C4)c3)ccn2)cn1 [TDM-180641, 3-(3-(4-(2-((1-methyl-1H-pyrazol-4-yl)amino)pyridin-4-yl)-1H-pyrazol-1-yl)azetidin-1-yl)-3-oxypropionitrile] | ≥ 10 | ≥ 10 | ≥ 10 | ≥ 10 |
| CCS(=O)(=O)N1CC(CC#N)(n2ccc(-c3ccnc(Nc4cnn(C)c4)n3)n2)C1 [TDM-180922, 2-(1-(ethylsulfonyl)-3-(3-(2-((1-methyl-1H-pyrazol-4-yl)amino)pyrimidin-4-yl)-1H-pyrazol-1-yl)azetidinpyridin-3-yl)acetonitrile] | – | 0.1 to 1 | – | 0.1 to 1 |
| Cn1cc(Nc2nccc(-c3ccn(C4(CC#N)CN(C(=O)[C@@H]5CC5(F)F)C4)c3)n2)cn1 [TDM-180937, (S)-2-(1-(2,2-difluorocyclopropane-1-carbonyl)-3-(3-(2-((1-methyl-1H-pyrazol-4-yl)amino)pyrimidin-4-yl)-1H-pyrrol-1-yl)azetidin-3-yl)acetonitrile] | – | < 0.1 | – | < 0.1 |
| Cn1cc(Nc2nccc(-c3cnn(C4(CC#N)CN(S(=O)(=O)CCCCl)C4)c3)n2)cn1 [TDM-180925, 2-(1-((3-chloropropyl)sulfonyl)-3-(4-(2-((1-methyl-1H-pyrazol-4-yl)amino)pyrimidin-4-yl)-1H-pyrazol-1-yl)azetidin-3-yl)acetonitrile] | – | 0.1 to 1 | – | 0.1 to 1 |
| Cn1cc(Nc2nccc(-c3ccn(C4(CC#N)CN(S(=O)(=O)C5CCOCC5)C4)n3)n2)cn1 [TDM-180912, 2-(3-(3-(2-((1-methyl-1H-pyrazol-4-yl)amino)pyrimidin-4-yl)-1H-pyrazol-1-yl)-1-((tetrahydro-2H-pyran-4-yl)sulfonyl)azetidin-3-yl)acetonitrile] | – | 0.1 to 1 | – | 1 to 10 |
| Cn1cc(Nc2nccc(-c3ccn(C4(CC#N)CN(C(=O)C5CC5(F)F)C4)n3)n2)cn1 (stereo not shown) [TDM-180859, 2-(1-(2,2-difluorcyclopropanecarbonyl)-3-(3-(2-((1-methyl-1H-pyrazol-4-yl)amino)pyrimidin-4-yl)-1H-pyrazol-1-yl)azetidin-3-yl)acetonitrile] | – | 0.1 to 1 | – | 0.1 to 1 |
